Source: patent EP1650209A1, “Griseusin derivatives and their use as antitumor agents” (Oncotest GmbH, priority 2004, dated 2006)
Converted amounts (≈) assume the structure as drawn.

Tests used:
Assay in all cases: Clonogenic assay, colony formation of tumor stem cells from xenografts
Format in all cases: cell-based, human
BXF 1036 = details: Bladder, xenograft BXF 1036, colony formation
Procedure: (§1) Using various human cancer xenografts in vitro, the concentrations of compound B which inhibit formation of tumor colonies of tumor stem cells by 50% (IC50) and 70% (IC70) are determined in a clonogenic assay. Specifically, each solid tumor of bladder cancer (BXF 1036 and BXF 1299), cervical cancer (CEXF 633 and CEXF 773), colic cancer (CXF 1103, CXF 158, CXF 1729, CXF 264 and CXF 280), gastric cancer (GXF 251 and GXF 97), head and neck cancer (HNXF 536), liver cancer (LIXF 575), non small cell lung cancer comprising adeno, squamous epithelium and large cell carcinoma (LXFA 1012, LXFA 289, LXFA 297, LXFA 526, LXFA 592, LXFA 629, LXFA 677, LXFE 409, LXFL 1072, LXFL 430LX and LXFL 529), small cell lung cancer (LXFS 650), mammary cancer (MAXF 1162, MAXF 1384, MAXF 401, MAXF 449, MAXF 574, MAXF 583, MAXF 713 and MAXF 857), melanoma (MEXF 1341, MEXF 462, MEXF 535 and MEXF 989), ovary cancer (OVXF 899), pancreatic cancer (PAXF 546 and PAXF 736), prostate cancer (DU-145 and PC3M), pleuramesothelioma (PXF 1752), renal cancer (RXF 1220, RXF 1393, RXF 393, RXF 631 and RXF 944LX), and sarcoma (SXF 1301 and SXF 463) engrafted on RPMI nu/nu thymus aplastic nude mice were explanted, disaggregated by mincing and enzymatic digestion for 50 minutes using 125 U/mL DNAse I, 41 U/mL collagenase IV, 100 U/ml hyaluronidase III, and 1 U/mL dispase I, and passed through sieves of 200 µm and 50 µm mesh size and washed twice with sterile PBS-buffer to remove cell aggregated from single cells. The clonogenic assay was performed in a 24 multiwell format. Each of the resulting single cell suspensions was added at a density of 2·10^4 to 6·10^4 cells per well to 0.2 ml of Iscove's Modified Dulbecco's Medium (IMDM) containing 20% fetal calf serum and 0.01% gentamicin supplemented with 0.4% (w/v) agar, and plated onto a bottom layer consisting of the same culture medium containing 0.75% (w/v) agar. After 24 hours IMDM containing 20% fetal calf serum and 0.01 % gentamicin, together with a test compound, was added there to. Then, the plate was incubated at 37°C for 10 to 20 days in a humidified atmosphere of air containing 7.5% CO2. Within this period, in vitro tumor growth led to the formation of colonies with a diameter of > 50µm. Colony counts were performed with an automatic image analysis system (OMNICON 3600). 24 hours prior to evaluation, vital colonies were stained with a vital staining dye. Therefore, 100 µl of a sterile aqueous solution of 2-(4-iodophenyl)-3-(4-nitrophenyl)-5-phenyltetrazolium chloride (1 mg/ml) were added to each well of the plate, and plates were incubated for 24 hours at 37°C in a humidified atmosphere of air containing 7.5% CO2. Inhibition of colony formation was expressed as test versus untreated control (T/C-value [%]). IC50 and IC70 values were determined by plotting compound concentration versus cell viability. Table 3: Inhibition of Colony Formation of Tumor Stem Cells by griseusin derivative B

BXF 1299 = details: Bladder, xenograft BXF 1299, colony formation
Procedure: as §1

CEXF 633 = details: Cervix, xenograft CEXF 633, colony formation
Procedure: as §1

CEXF 773 = details: Cervix, xenograft CEXF 773, colony formation
Procedure: as §1

GXF 97 = details: Stomach, xenograft GXF 97, colony formation
Procedure: as §1

LXFL 1072 = details: Lung, non small cell, xenograft LXFL 1072, colony formation
Procedure: as §1

LXFL 529 = details: Lung, non small cell, xenograft LXFL 529, colony formation
Procedure: as §1

MAXF 1162 = details: Breast, xenograft MAXF 1162, colony formation
Procedure: as §1

MAXF 1384 = details: Breast, xenograft MAXF 1384, colony formation
Procedure: as §1

MAXF 401 = details: Breast, xenograft MAXF 401, colony formation
Procedure: as §1

MAXF 449 = details: Breast, xenograft MAXF 449, colony formation
Procedure: as §1

MAXF 583 = details: Breast, xenograft MAXF 583, colony formation
Procedure: as §1

PAXF 736 = details: Pancreas, xenograft PAXF 736, colony formation
Procedure: as §1

PC3M = details: Prostate, xenograft PC3M
Procedure: as §1

RXF 1220 = details: Kidney, xenograft RXF 1220, colony formation
Procedure: as §1

RXF 1393 = details: Kidney, xenograft RXF 1393, colony formation
Procedure: as §1

RXF 631 = details: Kidney, xenograft RXF 631, colony formation
Procedure: as §1

SXF 1301 = details: Sarcoma, xenograft SXF 1301, colony formation
Procedure: as §1

Work on C[C@@H]1CC(=O)[C@@H](O)[C@]2(O1)O[C@@H]1CC(=O)O[C@@H]1C1=C2C(=O)c2c(O)cccc2C1=O [Compound B, 4'-dehydro-deacetylgriseusin A] yielded an IC50 (BXF 1036) of 1.743 µg/mL (≈ 4.35 µM), an IC70 (BXF 1036) of 2.271 µg/mL (≈ 5.67 µM) and an IC50 (BXF 1299) of 1.107 µg/mL (≈ 2.77 µM). It also gave an IC70 (BXF 1299) of 1.662 µg/mL (≈ 4.15 µM), an IC50 (CEXF 633) of 1.310 µg/mL (≈ 3.27 µM) and an IC70 (CEXF 633) of 1.837 µg/mL (≈ 4.59 µM). The IC50 (CEXF 773) was 1.936 µg/mL (≈ 4.84 µM), the IC70 (CEXF 773) was 2.333 µg/mL (≈ 5.83 µM) and the IC50 (GXF 97) was 0.300 µg/mL (≈ 0.749 µM). The IC70 (GXF 97) was 0.495 µg/mL (≈ 1.24 µM), the IC50 (LXFL 1072) was 0.252 µg/mL (≈ 0.629 µM) and the IC70 (LXFL 1072) was 0.468 µg/mL (≈ 1.17 µM). The IC50 (LXFL 529) was 0.364 µg/mL (≈ 0.909 µM), the IC70 (LXFL 529) was 0.699 µg/mL (≈ 1.75 µM) and the IC50 (MAXF 1162) was 0.182 µg/mL (≈ 0.455 µM). For the same compound, the IC70 (MAXF 1162) was 0.362 µg/mL (≈ 0.904 µM), the IC50 (MAXF 1384) was 0.606 µg/mL (≈ 1.51 µM) and the IC70 (MAXF 1384) was 0.750 µg/mL (≈ 1.87 µM). For the same compound, the IC50 (MAXF 401) was 0.478 µg/mL (≈ 1.19 µM), the IC70 (MAXF 401) was 0.782 µg/mL (≈ 1.95 µM) and the IC50 (MAXF 449) was 0.400 µg/mL (≈ 0.999 µM). It also gave an IC70 (MAXF 449) of 0.648 µg/mL (≈ 1.62 µM), an IC50 (MAXF 583) of 0.078 µg/mL (≈ 0.195 µM) and an IC70 (MAXF 583) of 0.195 µg/mL (≈ 0.487 µM). The IC50 (PAXF 736) was 0.246 µg/mL (≈ 0.614 µM), the IC70 (PAXF 736) was 0.452 µg/mL (≈ 1.13 µM) and the IC50 (PC3M) was 0.419 µg/mL (≈ 1.05 µM). The IC70 (PC3M) was 0.818 µg/mL (≈ 2.04 µM), the IC50 (RXF 1220) was 0.782 µg/mL (≈ 1.95 µM) and the IC70 (RXF 1220) was 0.952 µg/mL (≈ 2.38 µM). The IC50 (RXF 1393) was 0.592 µg/mL (≈ 1.48 µM), the IC70 (RXF 1393) was 0.769 µg/mL (≈ 1.92 µM) and the IC50 (RXF 631) was 0.517 µg/mL (≈ 1.29 µM). For the same compound, the IC70 (RXF 631) was 0.719 µg/mL (≈ 1.8 µM), the IC50 (SXF 1301) was 0.328 µg/mL (≈ 0.819 µM) and the IC70 (SXF 1301) was 0.517 µg/mL (≈ 1.29 µM).
